According to ChEMBL document CHEMBL1201861, “Genomics of Drug Sensitity in Cancer screening data, Wellcome Trust Sanger Institute”:

Experiments:
Test in all cases: cells
Conditions in all cases: Homo sapiens
BT-474 = assay type: functional, cell-based
Description: SANGER: Inhibition of human BT-474 cell growth in a cell viability assay.

D-263MG = assay type: functional, cell-based
Description: SANGER: Inhibition of human D-263MG cell growth in a cell viability assay.

LS-411N = assay type: functional, cell-based
COLO-684 = assay type: functional, cell-based
Description: SANGER: Inhibition of human COLO-684 cell growth in a cell viability assay.

OVCAR-4 = assay type: functional, cell-based;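 further: growth inhibition of human OVCAR-4 cells, measured with a cell viability assay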
Description: SANGER: Inhibition of human OVCAR-4 cell growth in a cell viability assay.

C2BBe1 = assay type: functional, cell-based;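 further: growth inhibition of C2BBe1 cells, read out through a viability assay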
Description: SANGER: Inhibition of human C2BBe1 cell growth in a cell viability assay.

A498 = assay type: functional, cell-based;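 further: growth inhibition of human A498 cells, read out with a cell viability assay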
Description: SANGER: Inhibition of human A498 cell growth in a cell viability assay.

LS-513 = assay type: functional, cell-based
Description: SANGER: Inhibition of human LS-513 cell growth in a cell viability assay.

NH-12 = assay type: functional, cell-based;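 further: growth inhibition of NH-12 cells, read out with a cell viability assay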
Description: SANGER: Inhibition of human NH-12 cell growth in a cell viability assay.

SW 962 = assay type: functional, cell-based;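 further: growth inhibition of human SW962 cells, read out by a cell viability assay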
Description: SANGER: Inhibition of human SW962 cell growth in a cell viability assay.

NCI-H510A = assay type: functional, cell-based;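 further: growth inhibition of NCI-H510A cells, read out with a cell viability assay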
Description: SANGER: Inhibition of human NCI-H510A cell growth in a cell viability assay.

IST-MES1 = assay type: functional, cell-based;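 further: growth inhibition of IST-MES1 cells, measured with a cell viability assay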
Description: SANGER: Inhibition of human IST-MES1 cell growth in a cell viability assay.

EW-3 = assay type: functional, cell-based;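 further: cell viability assay read-out, IC50 reflects inhibition of growth of the EW-3 cells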
Description: SANGER: Inhibition of human EW-3 cell growth in a cell viability assay.

Lu-65 = assay type: functional, cell-based;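 further: growth inhibition of Lu-65 cancer cells, read out by a cell viability assay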
Description: SANGER: Inhibition of human LU-65 cell growth in a cell viability assay.

NCI-H1650 = assay type: functional, cell-based;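 further: growth inhibition of human NCI-H1650 cells measured by a cell viability assay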
Description: SANGER: Inhibition of human NCI-H1650 cell growth in a cell viability assay.

DSH1 = assay type: functional, cell-based;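 further: growth inhibition of human DSH1 cells, measured with a cell viability readout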
Description: SANGER: Inhibition of human DSH1 cell growth in a cell viability assay.

NKM-1 = assay type: functional, cell-based;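 further: growth inhibition of NKM-1 cells, read out with a cell viability assay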
Description: SANGER: Inhibition of human NKM-1 cell growth in a cell viability assay.

LB373-MEL-D = assay type: functional, cell-based;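 further: growth inhibition of the cell line, read out in a cell viability assay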
Description: SANGER: Inhibition of human LB373-MEL-D cell growth in a cell viability assay.

MSTO-211H = assay type: functional, cell-based
Description: SANGER: Inhibition of human MSTO-211H cell growth in a cell viability assay.

GI-ME-N = assay type: functional, cell-based;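 further: growth inhibition of human GI-ME-N cells, read out with a cell viability assay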
Description: SANGER: Inhibition of human GI-ME-N cell growth in a cell viability assay.

BV-173 = assay type: functional, cell-based
Description: SANGER: Inhibition of human BV-173 cell growth in a cell viability assay.

JAR = assay type: functional, cell-based;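 further: growth inhibition of human JAR cells determined with a cell viability assay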
Description: SANGER: Inhibition of human JAR cell growth in a cell viability assay.

NCI-H1092 = assay type: functional, cell-based;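 further: cell growth inhibition measured with a cell viability assay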
Description: SANGER: Inhibition of human NCI-H1092 cell growth in a cell viability assay.

MHH-NB-11 = assay type: functional, cell-based;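 further: growth inhibition of human MHH-NB-11 cells, read out by a cell viability assay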
Description: SANGER: Inhibition of human MHH-NB-11 cell growth in a cell viability assay.

ALL-PO = assay type: functional, cell-based;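 further: growth inhibition of ALL-PO cells, read out by a cell viability assay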
Description: SANGER: Inhibition of human ALL-PO cell growth in a cell viability assay.

TE-1 = assay type: functional, cell-based;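 further: growth inhibition of the human TE-1 cell line, read out with a cell viability assay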
Description: SANGER: Inhibition of human TE-1 cell growth in a cell viability assay.

MPP-89 = assay type: functional, cell-based;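 further: growth inhibition of human MPP-89 cells, read out with a cell viability assay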
Description: SANGER: Inhibition of human MPP-89 cell growth in a cell viability assay.

CP66-MEL = assay type: functional, cell-based;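 further: growth inhibition of CP66-MEL cells determined in a cell viability assay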
Description: SANGER: Inhibition of human CP66-MEL cell growth in a cell viability assay.

HAL-01 = assay type: functional, cell-based;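 further: growth inhibition of human HAL-01 cells, read out with a cell viability assay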
Description: SANGER: Inhibition of human HAL-01 cell growth in a cell viability assay.

KY821 = assay type: functional, cell-based;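 further: growth inhibition of human KY821 cells, read out by a cell viability assay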
Description: SANGER: Inhibition of human KY821 cell growth in a cell viability assay.

KE-37 = assay type: functional, cell-based;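 further: growth inhibition of KE-37 cells, read out with a cell viability assay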
Description: SANGER: Inhibition of human KE-37 cell growth in a cell viability assay.

HL-60 = assay type: functional, cell-based;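 further: growth inhibition of human HL-60 cells, read out with a cell viability assay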
Description: SANGER: Inhibition of human HL-60 cell growth in a cell viability assay.

LB831-BLC = assay type: functional, cell-based;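 further: growth inhibition of LB831-BLC cells, read out with a cell viability assay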
Description: SANGER: Inhibition of human LB831-BLC cell growth in a cell viability assay.

OCUB-M = assay type: functional, cell-based;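 further: growth inhibition of the cancer cell line, read out through a cell viability assay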
Description: SANGER: Inhibition of human OCUB-M cell growth in a cell viability assay.

COR-L88 = assay type: functional, cell-based;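 further: growth inhibition of COR-L88 cells, read out with a cell viability assay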
Description: SANGER: Inhibition of human COR-L88 cell growth in a cell viability assay.

Mo = assay type: functional, cell-based
Description: SANGER: Inhibition of human Mo-T cell growth in a cell viability assay.

NCI-H1355 = assay type: functional, cell-based;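 further: growth inhibition of human NCI-H1355 cells, read out by a cell viability assay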
Description: SANGER: Inhibition of human NCI-H1355 cell growth in a cell viability assay.

LB771-HNC = assay type: functional, cell-based;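 further: growth inhibition of LB771-HNC human cells, read out with a cell viability assay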
Description: SANGER: Inhibition of human LB771-HNC cell growth in a cell viability assay.

TGBC24TKB = assay type: functional, cell-based;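 further: growth inhibition of human TGBC24TKB cells, read out with a cell viability assay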
Description: SANGER: Inhibition of human TGBC24TKB cell growth in a cell viability assay.

NCI-H526 = assay type: functional, cell-based;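 further: growth inhibition of the human NCI-H526 cell line, measured by a cell viability assay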
Description: SANGER: Inhibition of human NCI-H526 cell growth in a cell viability assay.

EW-18 = assay type: functional, cell-based;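 further: growth inhibition of EW-18 cells, read out by a cell viability assay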
Description: SANGER: Inhibition of human EW-18 cell growth in a cell viability assay.

BB49-HNC = assay type: functional, cell-based;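 further: cell viability assay read-out, reported as inhibition of BB49-HNC cell growth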
Description: SANGER: Inhibition of human BB49-HNC cell growth in a cell viability assay.

EKVX = assay type: functional, cell-based;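 further: growth inhibition of human EKVX cells, read out with a cell viability assay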
Description: SANGER: Inhibition of human EKVX cell growth in a cell viability assay.

HuTu80 = assay type: functional, cell-based, HUTU-80;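 further: growth inhibition of HuTu80 human cells, determined with a cell viability readout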
Description: SANGER: Inhibition of human HUTU-80 cell growth in a cell viability assay.

NB10 = assay type: functional, cell-based;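 further: growth inhibition of NB10 cells, read out by a cell viability assay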
Description: SANGER: Inhibition of human NB10 cell growth in a cell viability assay.

L-428 = assay type: functional, cell-based
Description: SANGER: Inhibition of human L-428 cell growth in a cell viability assay.

EW-11 = assay type: functional, cell-based;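 further: growth inhibition of human EW-11 cells, measured with a cell viability assay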
Description: SANGER: Inhibition of human EW-11 cell growth in a cell viability assay.

COLO-668 = assay type: functional, cell-based
Description: SANGER: Inhibition of human COLO-668 cell growth in a cell viability assay.

COLO-829 = assay type: functional, cell-based
Description: SANGER: Inhibition of human COLO-829 cell growth in a cell viability assay.

KARPAS-299 = assay type: functional, cell-based
Description: SANGER: Inhibition of human KARPAS-299 cell growth in a cell viability assay.

D283 Med = assay type: functional, cell-based
Description: SANGER: Inhibition of human D-283MED cell growth in a cell viability assay.

CW-2 = assay type: functional, cell-based;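 further: growth inhibition of CW-2 cells, read out by a cell viability assay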
Description: SANGER: Inhibition of human CW-2 cell growth in a cell viability assay.

COLO-800 = assay type: functional, cell-based;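 further: growth inhibition of COLO-800 cells, read out with a cell viability assay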
Description: SANGER: Inhibition of human COLO-800 cell growth in a cell viability assay.

BB30-HNC = assay type: functional, cell-based;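 further: growth inhibition of the cultured cell line, read out by a cell viability assay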
Description: SANGER: Inhibition of human BB30-HNC cell growth in a cell viability assay.

LXF-289 cell line = assay type: functional, cell-based
Description: SANGER: Inhibition of human LXF-289 cell growth in a cell viability assay.

LU-134-A = assay type: functional, cell-based
Description: SANGER: Inhibition of human LU-134-A cell growth in a cell viability assay.

TE-8 = assay type: functional, cell-based;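 further: growth inhibition of TE-8 cells, measured with a cell viability readout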
Description: SANGER: Inhibition of human TE-8 cell growth in a cell viability assay.

RH-1 = assay type: functional, cell-based;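 further: growth inhibition of human RH-1 cells, read out with a cell viability assay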
Description: SANGER: Inhibition of human RH-1 cell growth in a cell viability assay.

SW684 = assay type: functional, cell-based;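 further: growth inhibition of human SW684 cells, measured by a cell viability assay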
Description: SANGER: Inhibition of human SW684 cell growth in a cell viability assay.

SHP77 = assay type: functional, cell-based, SHP-77;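 further: growth inhibition of human SHP-77 cells measured by a cell viability assay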
Description: SANGER: Inhibition of human SHP-77 cell growth in a cell viability assay.

LNCaP-Clone-FGC = assay type: functional, cell-based
Description: SANGER: Inhibition of human LNCaP-Clone-FGC cell growth in a cell viability assay.

NB6 = assay type: functional, cell-based;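 further: growth inhibition of NB6 cells, read out by a cell viability assay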
Description: SANGER: Inhibition of human NB6 cell growth in a cell viability assay.

LB1047-RCC = assay type: functional, cell-based;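 further: inhibition of cell growth, determined with a cell viability assay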
Description: SANGER: Inhibition of human LB1047-RCC cell growth in a cell viability assay.

COLO-320-HSR = assay type: functional, cell-based
Description: SANGER: Inhibition of human COLO-320-HSR cell growth in a cell viability assay.

SK-UT-1 = assay type: functional, cell-based
Description: SANGER: Inhibition of human SK-UT-1 cell growth in a cell viability assay.

CC(O)(CS(=O)(=O)c1ccc(F)cc1)C(=O)Nc1ccc(C#N)c(C(F)(F)F)c1 (stereo not given) [BICALUTAMIDE]
IC50 (BT-474): > 1020 nM
IC50 (D-263MG): > 1020 nM
IC50 (LS-411N): > 1020 nM
IC50 (COLO-684): > 1020 nM
IC50 (OVCAR-4): > 1020 nM
IC50 (C2BBe1): > 1020 nM
IC50 (A498): > 1020 nM
IC50 (LS-513): > 1020 nM
IC50 (NH-12): > 1020 nM
IC50 (SW 962): > 1020 nM
IC50 (NCI-H510A): > 1020 nM
IC50 (IST-MES1): > 1020 nM
IC50 (EW-3): > 1020 nM
IC50 (Lu-65): > 1020 nM
IC50 (NCI-H1650): > 1020 nM
IC50 (DSH1): > 1020 nM
IC50 (NKM-1): > 1020 nM
IC50 (LB373-MEL-D): > 1020 nM
IC50 (MSTO-211H): > 1020 nM
IC50 (GI-ME-N): > 1020 nM
IC50 (BV-173): > 1020 nM
IC50 (JAR): > 1020 nM
IC50 (NCI-H1092): > 1020 nM
IC50 (MHH-NB-11): > 1020 nM
IC50 (ALL-PO): > 1020 nM
IC50 (TE-1): > 1020 nM
IC50 (MPP-89): > 1020 nM
IC50 (CP66-MEL): > 1020 nM
IC50 (HAL-01): > 1020 nM
IC50 (KY821): > 1020 nM
IC50 (KE-37): > 1020 nM
IC50 (HL-60): > 1020 nM
IC50 (LB831-BLC): > 1020 nM
IC50 (OCUB-M): > 1020 nM
IC50 (COR-L88): > 1020 nM
IC50 (Mo): > 1020 nM
IC50 (NCI-H1355): > 1020 nM
IC50 (LB771-HNC): > 1020 nM
IC50 (TGBC24TKB): > 1020 nM
IC50 (NCI-H526): > 1020 nM
IC50 (EW-18): > 1020 nM
IC50 (BB49-HNC): > 1020 nM
IC50 (EKVX): > 1020 nM
IC50 (HuTu80): > 1020 nM
IC50 (NB10): > 1020 nM
IC50 (L-428): > 1020 nM
IC50 (EW-11): > 1020 nM
IC50 (COLO-668): > 1020 nM
IC50 (COLO-829): > 1020 nM
IC50 (KARPAS-299): > 1020 nM
IC50 (D283 Med): > 1020 nM
IC50 (CW-2): > 1020 nM
IC50 (COLO-800): > 1020 nM
IC50 (BB30-HNC): > 1020 nM
IC50 (LXF-289 cell line): > 1020 nM
IC50 (LU-134-A): > 1020 nM
IC50 (TE-8): > 1020 nM
IC50 (RH-1): > 1020 nM
IC50 (SW684): > 1020 nM
IC50 (SHP77): > 1020 nM
IC50 (LNCaP-Clone-FGC): > 1020 nM
IC50 (NB6): > 1020 nM
IC50 (LB1047-RCC): > 1020 nM
IC50 (COLO-320-HSR): > 1020 nM
IC50 (SK-UT-1): > 1020 nM

COc1cc(Nc2c(C#N)cnc3cc(OCCCN4CCN(C)CC4)c(OC)cc23)c(Cl)cc1Cl [BOSUTINIB]
IC50 (BT-474): > 2000 nM
IC50 (D-263MG): > 2000 nM
IC50 (LS-411N): > 2000 nM
IC50 (COLO-684): > 2000 nM
IC50 (OVCAR-4): > 2000 nM
IC50 (C2BBe1): > 2000 nM
IC50 (A498): 1400 nM
IC50 (LS-513): > 2000 nM
IC50 (NH-12): > 2000 nM
IC50 (SW 962): > 2000 nM
IC50 (NCI-H510A): > 2000 nM
IC50 (IST-MES1): > 2000 nM
IC50 (EW-3): 559 nM
IC50 (Lu-65): > 2000 nM
IC50 (NCI-H1650): > 2000 nM
IC50 (DSH1): > 2000 nM
IC50 (NKM-1): 1720 nM
IC50 (LB373-MEL-D): > 2000 nM
IC50 (MSTO-211H): > 2000 nM
IC50 (GI-ME-N): > 2000 nM
IC50 (BV-173): 508 nM
IC50 (JAR): 1490 nM
IC50 (NCI-H1092): > 2000 nM
IC50 (MHH-NB-11): 1310 nM
IC50 (ALL-PO): > 2000 nM
IC50 (TE-1): > 2000 nM
IC50 (MPP-89): > 2000 nM
IC50 (CP66-MEL): > 2000 nM
IC50 (HAL-01): 1090 nM
IC50 (KY821): 1130 nM
IC50 (KE-37): 495 nM
IC50 (HL-60): > 2000 nM
IC50 (LB831-BLC): > 2000 nM
IC50 (OCUB-M): > 2000 nM
IC50 (COR-L88): > 2000 nM
IC50 (Mo): > 2000 nM
IC50 (NCI-H1355): > 2000 nM
IC50 (LB771-HNC): 831 nM
IC50 (TGBC24TKB): > 2000 nM
IC50 (NCI-H526): 1990 nM
IC50 (EW-18): > 2000 nM
IC50 (BB49-HNC): > 2000 nM
IC50 (EKVX): > 2000 nM
IC50 (HuTu80): > 2000 nM
IC50 (NB10): > 2000 nM
IC50 (L-428): > 2000 nM
IC50 (EW-11): > 2000 nM
IC50 (COLO-668): > 2000 nM
IC50 (COLO-829): > 2000 nM
IC50 (KARPAS-299): > 2000 nM
IC50 (D283 Med): > 2000 nM
IC50 (CW-2): > 2000 nM
IC50 (COLO-800): > 2000 nM
IC50 (BB30-HNC): 1290 nM
IC50 (LXF-289 cell line): > 2000 nM
IC50 (LU-134-A): > 2000 nM
IC50 (TE-8): > 2000 nM
IC50 (RH-1): > 2000 nM
IC50 (SW684): > 2000 nM
IC50 (SHP77): > 2000 nM
IC50 (LNCaP-Clone-FGC): > 2000 nM
IC50 (NB6): > 2000 nM
IC50 (LB1047-RCC): 1240 nM
IC50 (COLO-320-HSR): > 2000 nM
IC50 (SK-UT-1): > 2000 nM
